Our source for the IC50 values is patent US20170334899A1, “AMINO-SUBSTITUTED ISOTHIAZOLES” (Bayer Pharma Aktiengesellschaft, priority 2014, published 2017).

The test system of this assay is human cervical tumor cell line HeLa (ATCC CCL-2). Kind of assay: SAC-Formation - Paclitaxel-Induced Assay. It is filed as cell-based. The settings on record: Homo sapiens, HeLa, 24 h, HeLa cells, paclitaxel 0.05 μM, test range 0.005 μM-20 μM, read-out: IC50 [mol/l] SAC-Formation - Paclitaxel-Induced Assay. A digest of the protocol:
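Read-out is high-content imaging of anti-phospho-H3 Ser10 (mitosis) and Hoechst 33342 (DNA, cell number), with decreased mitotic fraction marking checkpoint breakthrough. Compounds (0.005–20 μM) and 0.05 μM paclitaxel co-added to overnight-plated HeLa for 24 h at 37° C; four-parameter Hill fit.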

Structures are written as SMILES.

`Cc1nsc(Nc2cnc(C(F)(F)F)cn2)c1C(=O)Nc1ccc(OC[C@@H]2CCCN(CC(F)F)C2)nc1` [Example 375, N-(6-{[(3R)-1-(2,2-difluoroethyl)piperidin-3-yl]methoxy}pyridin-3-yl)-3-methyl-5-{[5-(trifluoromethyl)pyrazin-2-yl]amino}-1,2-thiazole-4-carboxamide]: the IC50 came to 200 nM.
